pIC50: −log10 of the molar value. Where two headings read alike, the source gives them in different places.
Legend:
[1] = test system: Aβ40; experiment: In vitro BACE cell-based assay (Aβ40 sandwich ELISA, cells stably expressing APP); conditions: read-out: HEK cell assay
In short: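 APP-stably-expressing cells, grown 24 h in DMEM/10% FBS, received 10-point compound doses starting at 100 μM or 10 μM (0.1% DMSO final). Secreted Aβ40 in supernatants measured by sandwich ELISA with time-resolved europium fluorescence; IC50 from percent inhibition versus concentration.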

[2] = target: BACE (Homo sapiens, UniProt P56817); experiment: In vitro enzymatic BACE FRET assay; assay type: biochemical; conditions: average IC50, enzyme assay; read-out: BACE 1 FRET assay
In short: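 BACE (0.2 nM) preincubated 1 h with serially diluted inhibitors in 0.05 M acetate pH 4.2, 10% DMSO, 100 uM genapol. FRET peptide substrate (50 nM) added, 1 h incubation, then stopped with Tris to neutral pH. Fluorescence from cleavage read at […].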

[3] = Homo sapiens, HEK293, average IC50

Chain of BACE (P56817 46-501, species assumed): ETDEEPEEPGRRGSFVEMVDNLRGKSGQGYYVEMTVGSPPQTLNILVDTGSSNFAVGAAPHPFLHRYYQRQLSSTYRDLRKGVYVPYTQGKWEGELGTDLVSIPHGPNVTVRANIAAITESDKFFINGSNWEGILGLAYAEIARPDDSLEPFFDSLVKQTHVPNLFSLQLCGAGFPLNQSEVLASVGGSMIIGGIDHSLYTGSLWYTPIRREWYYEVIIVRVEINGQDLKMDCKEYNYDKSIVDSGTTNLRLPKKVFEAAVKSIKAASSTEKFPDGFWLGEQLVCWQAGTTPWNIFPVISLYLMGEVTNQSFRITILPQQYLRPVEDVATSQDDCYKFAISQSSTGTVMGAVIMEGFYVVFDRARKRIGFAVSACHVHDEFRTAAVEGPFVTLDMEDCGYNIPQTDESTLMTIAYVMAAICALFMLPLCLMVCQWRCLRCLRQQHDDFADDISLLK

NC1=N[C@@]2(CCS1)c1cc(-c3cccnc3F)ccc1Oc1cnc(Cl)cc12 [compound 199]
pIC50 [1, 3]: 6.41 | pIC50 [2]: 7.04

NC1=N[C@@]2(CCS1)c1cc(-c3cccnc3F)ccc1Oc1c(F)cc(C3=CCOCC3)cc12 [compound 200]
pIC50 [1, 3]: 7.91 | pIC50 [2]: 8.57

CC(C)(F)COc1cc(F)c2c(c1)[C@@]1(CCSC(N)=N1)c1cc(-c3cccnc3F)ccc1O2 [compound 202]
pIC50 [1, 3]: 5.61 | pIC50 [2]: 6.06

NC1=N[C@@]2(CO[C@@H]1c1ccccc1)c1cc(-c3cccnc3F)ccc1Oc1cnc(Cl)cc12 [compound 208]
pIC50 ([1]; average IC50): 6.87 | pIC50 [2]: 7.05

C[C@@H]1OC[C@@]2(N=C1N)c1cc(-c3cccnc3F)ccc1Oc1cnc(Cl)cc12 [compound 210]
pIC50 ([1]; average IC50): 6.69 | pIC50 [2]: 7.04

CC(C)C#Cc1cnc2c(c1)[C@]1(COCC(N)=N1)c1cc(-c3cccnc3F)ccc1O2 [compound 213]
pIC50 [1, 3]: 9.00 | pIC50 [2]: 9.22

CC(C)(C)C#Cc1ccc2c(c1)[C@@]1(COCC(N)=N1)c1cc(C3=CCOCC3)cnc1O2 [compound 214]
pIC50 [1, 3]: 8.21 | pIC50 [2]: 8.49

NC1=N[C@@]2(COC1)c1cc(-c3cc(F)ccc3F)ccc1Oc1ncc(C3CCOCC3)cc12 [compound 215]
pIC50 [1, 3]: 8.49 | pIC50 [2]: 8.43

NC1=N[C@@]2(COC1)c1cc(-c3cc(F)ccc3F)ccc1Oc1ncc(-c3cccnc3)cc12 [compound 216]
pIC50 [1, 3]: 8.55 | pIC50 [2]: 8.64

NC1=N[C@@]2(COC1)c1cc(-c3cc(F)ccc3F)ccc1Oc1ncc(-c3ccncc3)cc12 [compound 217]
pIC50 [1, 3]: 8.37 | pIC50 [2]: 8.44

NC1=N[C@@]2(COC1)c1cc(-c3cc(F)ccc3F)ccc1Oc1ncc(C3=CCOCC3)cc12 [compound 218]
pIC50 [1, 3]: 8.59 | pIC50 [2]: 8.89

CC(C)(C)C#Cc1ccc2c(c1)[C@@]1(COCC(N)=N1)c1cc(-c3ccnc(F)c3)cnc1O2 [compound 219]
pIC50 [1, 3]: 7.61 | pIC50 [2]: 8.23

COc1nc(-c2cccnc2)cc2c1Oc1ccc(-c3cccnc3F)cc1C21CCOC(N)=N1 (centres unmarked) [compound 221]
pIC50 [1, 3]: 6.93 | pIC50 [2]: 7.30

N#Cc1cccc(-c2ccc3c(c2)[C@]2(CCOC(N)=N2)c2cc(-c4ccnc(F)c4)nc(F)c2O3)c1 [compound 222]
pIC50 [1, 3]: 5.80 | pIC50 [2]: 6.77

N#Cc1cccc(-c2ccc3c(c2)[C@@]2(CCOC(N)=N2)c2cc(C4=CCCOC4)nc(F)c2O3)c1 [compound 223]
pIC50 [1, 3]: 8.85 | pIC50 [2]: 9.10

N#Cc1cccc(-c2ccc3c(c2)[C@]2(CCOC(N)=N2)c2cc(C4=CCCOC4)nc(F)c2O3)c1 [compound 224]
pIC50 [1, 3]: 6.01 | pIC50 [2]: 6.27

N#Cc1cccc(-c2ccc3c(c2)[C@@]2(CCOC(N)=N2)c2cc(-c4ccnc(F)c4)nc(F)c2O3)c1 [compound 225]
pIC50 [1, 3]: 8.52 | pIC50 [2]: 9.15

NC1=N[C@]2(CCO1)c1cc(-c3cccnc3F)ccc1Oc1c2cc(-c2cccnc2)nc1F [compound 227]
pIC50 [1, 3]: 7.00 | pIC50 [2]: 6.31

NC1=N[C@@]2(CCO1)c1cc(-c3cncc(F)c3)ccc1Oc1c2cc(C2=CCOCC2)nc1F [compound 228]
pIC50 [1, 3]: 9.15 | pIC50 [2]: 9.52

NC1=N[C@]2(CCO1)c1cc(-c3cncc(F)c3)ccc1Oc1c2cc(C2=CCOCC2)nc1F [compound 229]
pIC50 [1, 3]: 6.90 | pIC50 [2]: 6.83

NC1=N[C@@]2(CCO1)c1cc(-c3cccnc3)ccc1Oc1c2cc(-c2cncc(F)c2)nc1F [compound 231]
pIC50 [1, 3]: 9.52 | pIC50 [2]: 9.10

NC1=N[C@]2(CCO1)c1cc(-c3cncc(F)c3)ccc1Oc1c2cc(C2=CCCOC2)nc1F [compound 232]
pIC50 [1, 3]: 6.78 | pIC50 [2]: 6.10

N#Cc1cccc(-c2ccc3c(c2)[C@]2(CCOC(N)=N2)c2cc(C4=CCOCC4)nc(F)c2O3)c1 [compound 233]
pIC50 [1, 3]: 6.96 | pIC50 [2]: 5.80

N#Cc1cccc(-c2ccc3c(c2)[C@@]2(CCOC(N)=N2)c2cc(C4=CCOCC4)nc(F)c2O3)c1 [compound 234]
pIC50 [1, 3]: 9.15 | pIC50 [2]: 9.15

NC1=N[C@@]2(CCO1)c1cc(-c3cncc(F)c3)ccc1Oc1c2cc(C2=CCCOC2)nc1F [compound 236]
pIC50 [1, 3]: 9.30 | pIC50 [2]: 9.10

NC1=N[C@]2(CCO1)c1cc(-c3cccnc3F)ccc1Oc1c2cc(C2=CCCOC2)nc1F [compound 238]
pIC50 [1, 3]: 6.77 | pIC50 [2]: 6.53

NC1=N[C@]2(CCO1)c1cc(-c3cccnc3)ccc1Oc1c2cc(-c2ccnc(F)c2)nc1F [compound 240]
pIC50 [1, 3]: 6.69 | pIC50 [2]: 6.82

NC1=N[C@@]2(COC1)c1cc(-c3cccnc3F)ccc1Oc1c2cc(Cl)nc1F [compound 242]
pIC50 [1, 3]: 7.80 | pIC50 [2]: 8.92

NC1=N[C@@]2(COC1)c1cc(-c3cccnc3F)ccc1Oc1c2cc(-c2cccnc2)nc1F [compound 243]
pIC50 [1, 3]: 9.30 | pIC50 [2]: 9.52

NC1=N[C@]2(COC1)c1cc(-c3cccnc3F)ccc1Oc1c2cc(Cl)nc1F [compound 244]
pIC50 [1, 3]: 5.50 | pIC50 [2]: 6.32

NC1=N[C@@]2(COC1)c1cc(-c3cccnc3F)ccc1Oc1c2cc(-c2cncc(F)c2)nc1F [compound 245]
pIC50 [1, 3]: 9.52 | pIC50 [2]: 9.52

NC1=N[C@@]2(COC1)c1cc(-c3cccnc3)ccc1Oc1c2cc(C2=CCCOC2)nc1F [compound 246]
pIC50 [1, 3]: 10.00 | pIC50 [2]: 9.40

NC1=N[C@@]2(COC1)c1cc(-c3cccnc3F)ccc1Oc1c2cc(C2=CCOCC2)nc1F [compound 247]
pIC50 [1, 3]: 9.10 | pIC50 [2]: 9.22

CC(C)(C)COc1cc2c(cn1)Oc1ccc(Br)cc1[C@@]21COCC(N)=N1 [compound 251]
pIC50 [1, 3]: 7.20 | pIC50 [2]: 7.71

COc1cc2c(cn1)Oc1ccc(-c3cccc(F)c3)cc1[C@@]21COCC(N)=N1 [compound 252]
pIC50 [1, 3]: 7.30 | pIC50 [2]: 7.97

CCOc1cc2c(cn1)Oc1ccc(-c3cncc(Cl)c3)cc1[C@@]21COCC(N)=N1 [compound 253]
pIC50 [1, 3]: 8.82 | pIC50 [2]: 9.00

CC(C)COc1cc2c(cn1)Oc1ccc(-c3cncc(F)c3)cc1[C@@]21COCC(N)=N1 [compound 254]
pIC50 [1, 3]: 9.05 | pIC50 [2]: 9.30

CC(C)COc1cc2c(cn1)Oc1ccc(-c3cccnc3F)cc1[C@@]21COCC(N)=N1 [compound 255]
pIC50 [1, 3]: 9.00 | pIC50 [2]: 9.30

CCOc1cc2c(cn1)Oc1ccc(-c3cccc(F)c3)cc1[C@@]21COCC(N)=N1 [compound 256]
pIC50 [1, 3]: 7.59 | pIC50 [2]: 8.37

NC1=N[C@@]2(COC1)c1cc(-c3cncc(F)c3)ccc1Oc1cnc(Cl)cc12 [compound 257]
pIC50 [1, 3]: 7.38 | pIC50 [2]: 7.48

CC(C)Oc1cc2c(cn1)Oc1ccc(-c3cccnc3)cc1[C@@]21COCC(N)=N1 [compound 258]
pIC50 [1, 3]: 8.38 | pIC50 [2]: 8.57

CC(C)Oc1cc2c(cn1)Oc1ccc(-c3cccnc3F)cc1[C@@]21COCC(N)=N1 [compound 259]
pIC50 [1, 3]: 8.40 | pIC50 [2]: 8.92

CCOc1cc2c(cn1)Oc1ccc(-c3cccnc3F)cc1[C@@]21COCC(N)=N1 [compound 260]
pIC50 [1, 3]: 8.68 | pIC50 [2]: 8.80

NC1=N[C@]2(CCO1)c1cc(-c3cccnc3F)ccc1Oc1ncc(-c3ccnc(F)c3)cc12 [compound 267]
pIC50 [1, 3]: 5.45 | pIC50 [2]: 5.18

NC1=N[C@@]2(CCO1)c1cc(-c3cccnc3F)ccc1Oc1ncc(C3=CCCOC3)cc12 [compound 268]
pIC50 [1, 3]: 7.66 | pIC50 [2]: 7.94

NC1=N[C@@]2(CCO1)c1cc(-c3cccnc3F)ccc1Oc1ncc(C3=CCOCC3)cc12 [compound 269]
pIC50 [1, 3]: 8.25 | pIC50 [2]: 7.92

Reference: patent publication US9012446B2, “Amino-oxazines and amino-dihydrothiazine compounds as beta-secretase modulators and methods of use” (Amgen Inc., priority 2010, dated 2015)
